# Experimental data from patent US20250270217A1, “IMIDAZ0[1,2-A]PYRIMIDINE-5(1 H)-ONES HAVING A COVALENT WARHEAD AT THE 3-POSITION AS WRN INHIBITORS” (Incyte Corporation, priority 2023, published 2025).
# pIC50: −log10 of the molar value.
# Experiments:
# [1] = target: T1, WRN (Homo sapiens, UniProt Q14191); assay: WRN Helicase activity assay (fluorescence DNA unwinding); assay type: biochemical; conditions: 1-hr pre-incubation with enzyme; 100 μM ATP, 25 nM forked dsDNA, 1 nM WRN; geometric mean of at least 2 replicates
# T1 construct: A His-tagged construct of WRN (AA S2-S1235) was produced and used for the ATPase assay; His; made in house; host or cells: Sf9 insect cells (baculovirus)
# T1 sequence (Q14191 2-1235): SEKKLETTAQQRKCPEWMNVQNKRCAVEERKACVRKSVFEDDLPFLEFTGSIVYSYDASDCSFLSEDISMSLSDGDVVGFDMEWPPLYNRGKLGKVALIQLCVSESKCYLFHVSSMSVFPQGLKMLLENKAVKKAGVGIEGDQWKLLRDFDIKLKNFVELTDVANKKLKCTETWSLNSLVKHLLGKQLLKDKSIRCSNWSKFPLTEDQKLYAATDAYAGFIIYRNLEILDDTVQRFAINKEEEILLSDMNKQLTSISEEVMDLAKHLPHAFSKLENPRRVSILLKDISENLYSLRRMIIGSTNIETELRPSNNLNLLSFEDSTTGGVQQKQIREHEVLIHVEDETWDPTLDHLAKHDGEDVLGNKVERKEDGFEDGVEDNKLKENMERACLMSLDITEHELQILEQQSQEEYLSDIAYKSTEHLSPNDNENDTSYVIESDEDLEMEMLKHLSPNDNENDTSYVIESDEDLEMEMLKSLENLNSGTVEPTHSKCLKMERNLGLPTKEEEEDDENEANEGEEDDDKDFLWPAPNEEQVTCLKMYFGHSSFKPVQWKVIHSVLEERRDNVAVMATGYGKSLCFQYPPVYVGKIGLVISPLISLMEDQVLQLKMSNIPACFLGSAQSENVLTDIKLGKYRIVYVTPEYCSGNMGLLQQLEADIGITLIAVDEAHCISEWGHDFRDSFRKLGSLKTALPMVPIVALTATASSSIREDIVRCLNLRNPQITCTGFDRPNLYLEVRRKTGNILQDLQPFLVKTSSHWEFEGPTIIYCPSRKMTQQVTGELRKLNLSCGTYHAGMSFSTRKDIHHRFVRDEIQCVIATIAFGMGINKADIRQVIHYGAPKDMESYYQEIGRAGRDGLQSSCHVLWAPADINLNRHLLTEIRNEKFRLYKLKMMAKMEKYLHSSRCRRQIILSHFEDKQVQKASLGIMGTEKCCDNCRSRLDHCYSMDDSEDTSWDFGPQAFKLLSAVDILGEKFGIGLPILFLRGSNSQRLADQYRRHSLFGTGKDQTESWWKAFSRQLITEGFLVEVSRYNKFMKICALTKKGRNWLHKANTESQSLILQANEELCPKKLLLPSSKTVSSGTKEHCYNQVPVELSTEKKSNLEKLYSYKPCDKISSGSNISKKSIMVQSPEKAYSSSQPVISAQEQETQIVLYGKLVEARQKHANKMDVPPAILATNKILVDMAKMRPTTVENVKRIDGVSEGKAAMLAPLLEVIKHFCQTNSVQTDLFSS
# Protocol: Compounds of the examples were tested for WRN helicase activity. DNA encoding the target protein, 6×HIS-TEV-WRN-517-945, was produced, cloned and transfected as detailed in Example D. To determine the inhibitory properties of the compounds, a 384 wells plate-based Helicase assay was set up to measure the extent of DNA unwinding (Helicase) activity of WRN. The WRN Helicase assay was designed to measure increase in fluorescence signal using a fluorescence based, donor-quencher paired forked dsDNA oligomer substrate (custom synthesis from Sigma-Aldrich) prepared by annealing equal amounts of oligo GPat-1 ([BHQ2][…]) and oligo GPat-2 ([…][TAM]). Continuous measurement of fluorescent signal was used to optimize the buffer conditions, concentration of enzyme (WRN), concentration of substrates (ATP & dsDNA), and the linearity of the Helicase reaction. All solutions were prepared in the following assay buffer: 50 mM Tris-HCl, pH-7.5, 2 mM MgCl2, 50 mM NaCl, 1 mM EGTA, 0.01% P-20, 0.05% BSA, and 2 mM DTT prepared with nuclease free water.
# A serial dilution (1:3 scheme) of the compounds was prepared in neat DMSO and 100 nL of the compounds was dispensed in the Greiner black low volume (Greiner #784076) 384 wells assay plate. An 1-hr pre-incubation of the compounds with enzyme was included. A His-tagged construct of WRN (AA S2-S1235) was produced and used for the ATPase assay. Maximum inhibition control wells were set up with the addition of only assay buffer, and no inhibition control wells were set up with neat DMSO without test compounds. The reaction was initiated by addition of 5 μL substrate mix (200 μM ultrapure ATP, and 50 nM dsDNA prepared in assay buffer) and incubated at 25° C. for 35 min. A typical Helicase reaction consists of 25 nM forked dsDNA, 100 μM ATP, and 1 nM WRN prepared in assay buffer. The WRN Helicase reaction was quenched by the addition of 5 μL ‘STOP’ solution containing 100 mM EDTA (final EDTA concentration 33.33 mM) prepared in assay buffer. The plates were read on BMG PHERAstar FSX using 540/590 module to measure an increase of fluorescence. Data analysis was carried out using the Genedata software following % of control normalization. Fitting parameters include dose response IC50, Hill slope (n), maximum inhibition (S∞), and minimum inhibition (S0). The reported IC50 values for compounds in this invention are the geometric means of at least 2 independent replicates.
# [2] = target: T1, WRN; assay: WRN ATPase activity assay (ADP-Glo); assay type: biochemical; conditions: 1-hr pre-incubation with enzyme; 100 μM ATP, 25 nM forked dsDNA, 1 nM WRN; geometric mean of at least 2 replicates
# Protocol: Compounds of the Examples were tested for WRN ATPase activity. WRN ATPase activity catalyzes ATP hydrolysis to produce ADP and phosphate. DNA encoding the target protein, 6×HIS-TEV-WRN-517-945, was produced, cloned and transfected as detailed in Example D. The amount of ADP produced was measured using ADP-Glo™ Kinase Assay kit from Promega Corporation in a Greiner white regular volume 384 wells assay plate (Greiner #781075). Data was normalized to a standard curve generated using various ADP concentrations and the corresponding luminescent signal intensities at each concentration. The assay conditions were optimized for enzyme concentration (WRN), substrate concentrations (ATP & dsDNA), and the linearity of the ATPase reaction, in the following assay buffer: 50 mM Tris-HCl, pH-7.5, 2 mM MgCl2, 50 mM NaCl, 1 mM EGTA, 0.01% P-20, 0.05% BSA, and 2 mM DTT prepared with nuclease free water.
# A serial dilution (1:3 scheme) of the compounds were prepared in neat DMSO, with 100 nL of the compounds dispensed in the 384 wells assay plate. An 1-hr pre-incubation of the compounds with enzyme was included. A His-tagged construct of WRN (AA S2-S1235) was produced and used for the ATPase assay. Maximum inhibition control wells were set up with the addition of only assay buffer, and no inhibition control wells were set up with neat DMSO without test compounds. The reaction was initiated by addition of 5 μL substrate mix (200 μM ultrapure ATP, and 50 nM dsDNA prepared in assay buffer) and incubated at 25° C. for 35 min. A forked dsDNA oligomer substrate was prepared by annealing equal amounts of oligo GPat-1 ([BHQ2][…]) and oligo GPat-2 ([…][TAM]) and was used as dsDNA substrate for WRN ATPase assay. A typical ATPase reaction consists of 25 nM forked dsDNA, 100 μM ATP, and 1 nM WRN prepared in assay buffer. The WRN ATPase reaction was stopped by the addition of 5 μL of ADP-Glo Reagent from ADP-Glo™ Kinase Assay kit and incubated for 40 min to deplete the unreacted ATP. Afterwards, 5 μL of Kinase Detection Reagent from the ADP-Glo™ Kinase Assay kit was added and incubated for 1 hr for the development of luminescence signal.
# Luminesce signals were measured on BMG PHERAstar FSX using luminescence protocol. Data analysis was carried out using Genedata software following % of control normalization. Fitting parameters include dose response IC50, Hill slope (n), maximum inhibition (S∞), and minimum inhibition (S0). The reported IC50 values for compounds in this invention are the geometric means of at least 2 independent replicates.
pIC50 [1],pIC50 [2],Compound
> 7.00,> 7.00,"C=CC(=O)Nc1ccccc1-c1c(CC)nc2n(CC(=O)Nc3ccc(C(F)(F)F)cc3)c(C)cn2c1=O [Example 1, N-(2-(7-Ethyl-2-methyl-5-oxo-1-(2-oxo-2-((4-(trifluoromethyl)phenyl)amino)ethyl)-1,5-dihydroimidazo[1,2-a]pyrimidin-6-yl)phenyl)acrylamide]"
> 7.00,> 7.00,"C=CC(=O)Nc1ccccc1-c1c(CC)nc2n(CC(=O)Nc3ccc(C(F)(F)F)cc3Cl)c(C)cn2c1=O [Example 2, N-(2-(1-(2-((2-Chloro-4-(trifluoromethyl)phenyl)amino)-2-oxoethyl)-7-ethyl-2-methyl-5-oxo-1,5-dihydroimidazo[1,2-a]pyrimidin-6-yl)phenyl)acrylamide]"
> 7.00,> 7.00,"C=CC(=O)Nc1cc(S(C)(=O)=O)ccc1-c1c(CC)nc2n(CC(=O)Nc3ccc(C(F)(F)F)cc3)c(C)cn2c1=O [Example 3, N-(2-(7-Ethyl-2-methyl-5-oxo-1-(2-oxo-2-((4-(trifluoromethyl)phenyl)amino)ethyl)-1,5-dihydroimidazo[1,2-a]pyrimidin-6-yl)-5-(methylsulfonyl)phenyl)acrylamide]"
> 7.00,> 7.00,"C=CC(=O)Nc1ncccc1-c1c(CC)nc2n(CC(=O)Nc3ccc(C(F)(F)F)cc3)c(C)cn2c1=O [Example 4, N-(3-(7-Ethyl-2-methyl-5-oxo-1-(2-oxo-2-((4-(trifluoromethyl)phenyl)amino)ethyl)-1,5-dihydroimidazo[1,2-a]pyrimidin-6-yl)pyridin-2-yl)acrylamide]"
> 7.00,> 7.00,"C=CC(=O)Nc1cc(-c2cnn(C)c2)ccc1-c1c(CC)nc2n(CC(=O)Nc3ccc(C(F)(F)F)cc3)c(C)cn2c1=O [Example 5, N-(2-(7-Ethyl-2-methyl-5-oxo-1-(2-oxo-2-((4-(trifluoromethyl)phenyl)amino)ethyl)-1,5-dihydroimidazo[1,2-a]pyrimidin-6-yl)-5-(1-methyl-1H-pyrazol-4-yl)phenyl)acrylamide]"
> 7.00,> 7.00,"C=CS(=O)(=O)Nc1ccccc1-c1c(CC)nc2n(CC(=O)Nc3ccc(C(F)(F)F)cc3)c(C)cn2c1=O [Example 6, 2-(7-Ethyl-2-methyl-5-oxo-6-(2-(vinylsulfonamido)phenyl)imidazo[1,2-a]pyrimidin-1(5H)-yl)-N-(4-(trifluoromethyl)phenyl)acetamide]"
> 7.00,> 7.00,"CCc1nc2n(CC(=O)Nc3ccc(C(F)(F)F)cc3)c(C)cn2c(=O)c1-c1ccccc1NC(=O)CCl [Example 7, 2-Chloro-N-(2-(7-ethyl-2-methyl-5-oxo-1-(2-oxo-2-((4-(trifluoromethyl)phenyl)amino)ethyl)-1,5-dihydroimidazo[1,2-a]pyrimidin-6-yl)phenyl)acetamide]"
> 7.00,> 7.00,"C=CC(=O)Nc1cc(C(=O)NC2CC2)ccc1-c1c(CC)nc2n(CC(=O)Nc3ccc(C(F)(F)F)cc3)c(C)cn2c1=O [Example 8, 3-Acrylamido-N-cyclopropyl-4-(7-ethyl-2-methyl-5-oxo-1-(2-oxo-2-((4-(trifluoromethyl)phenyl)amino)ethyl)-1,5-dihydroimidazo[1,2-a]pyrimidin-6-yl)benzamide]"
> 7.00,> 7.00,"C=CC(=O)Nc1cc(C(=O)NC2CC2)ccc1-c1c(CC)nc2n(CC(=O)Nc3ccc(F)cc3Cl)c(C)cn2c1=O [Example 9, 3-Acrylamido-4-(1-(2-((2-chloro-4-fluorophenyl)amino)-2-oxoethyl)-7-ethyl-2-methyl-5-oxo-1,5-dihydroimidazo[1,2-a]pyrimidin-6-yl)-N-cyclopropylbenzamide]"
> 7.00,> 7.00,"C=CC(=O)Nc1cc(C(=O)NC2(C)CC2)ccc1-c1c(CC)nc2n(CC(=O)Nc3ccc(C(F)(F)F)cc3)c(C)cn2c1=O [Example 10, 3-Acrylamido-4-(7-ethyl-2-methyl-5-oxo-1-(2-oxo-2-((4-(trifluoromethyl)phenyl)amino)ethyl)-1,5-dihydroimidazo[1,2-a]pyrimidin-6-yl)-N-(1-methylcyclopropyl)benzamide]"
> 7.00,> 7.00,"C=CC(=O)Nc1cc(C(=O)NCC(F)F)ccc1-c1c(CC)nc2n(CC(=O)Nc3ccc(C(F)(F)F)cc3)c(C)cn2c1=O [Example 11, 3-Acrylamido-N-(2,2-difluoroethyl)-4-(7-ethyl-2-methyl-5-oxo-1-(2-oxo-2-((4-(trifluoromethyl)phenyl)amino)ethyl)-1,5-dihydroimidazo[1,2-a]pyrimidin-6-yl)benzamide]"
> 7.00,> 7.00,"C#CCNC(=O)c1ccc(-c2c(CC)nc3n(CC(=O)Nc4ccc(C(F)(F)F)cc4)c(C)cn3c2=O)c(NC(=O)C=C)c1 [Example 12, 3-Acrylamido-4-(7-ethyl-2-methyl-5-oxo-1-(2-oxo-2-((4-(trifluoromethyl)phenyl)amino)ethyl)-1,5-dihydroimidazo[1,2-a]pyrimidin-6-yl)-N-(prop-2-yn-1-yl)benzamide]"
> 7.00,> 7.00,"C=CC(=O)Nc1cc(C(=O)NC2CCOCC2)ccc1-c1c(CC)nc2n(CC(=O)Nc3ccc(C(F)(F)F)cc3)c(C)cn2c1=O [Example 13, 3-Acrylamido-4-(7-ethyl-2-methyl-5-oxo-1-(2-oxo-2-((4-(trifluoromethyl)phenyl)amino)ethyl)-1,5-dihydroimidazo[1,2-a]pyrimidin-6-yl)-N-(tetrahydro-2H-pyran-4-yl)benzamide]"
> 7.00,> 7.00,"C=CC(=O)Nc1ccccc1-c1c(CC)nc2n(CC(=O)Nc3ccc(C(F)(F)F)cc3)c(C)c(C3CC3)n2c1=O [Example 14, N-(2-(3-Cyclopropyl-7-ethyl-2-methyl-5-oxo-1-(2-oxo-2-((4-(trifluoromethyl)phenyl)amino)ethyl)-1,5-dihydroimidazo[1,2-a]pyrimidin-6-yl)phenyl)acrylamide]"
> 7.00,> 7.00,"C=CC(=O)Nc1ccccc1-c1c(CC)nc2n(CC(=O)Nc3ccc(C(F)(F)F)cc3)c(C)c(-c3ccccc3)n2c1=O [Example 15, N-(2-(7-Ethyl-2-methyl-5-oxo-1-(2-oxo-2-((4-(trifluoromethyl)phenyl)amino)ethyl)-3-phenyl-1,5-dihydroimidazo[1,2-a]pyrimidin-6-yl)phenyl)acrylamide]"
